From PubChem BioAssay AID330 (DTP/NCI, 2004)
Where “and” joins values, the source holds several entries; their conditions need not be identical. Identical values can stand only once. Toxic doses and inconclusive results are not listed.

Test system: P388 leukemia ip, CD2F1 mice, survival T/C
Assay: NCI In Vivo Anticancer Drug Screen. Data for tumor model P388 Leukemia (intraperitoneal) in CD2F1 (CDF1) mice
Conditions: endpoint: median survival time, higher = longer survival
Procedure, shortened: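 Mice carrying the transplanted tumor received test compound or vehicle. Survival was recorded in each group, and the value is the treated-group measurement divided by that of the vehicle-treated control group.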

[1] = dose: 50.0 mg/kg/injection, schedule: Q01DX005 (ip), vehicle: Klucel (hydroxypropylcellulose) (HPC)
[2] = dose: 50.0 mg/kg/injection, schedule: Q01DX009 (ip), vehicle: saline with Tween-80
[3] = dose: 100.0 mg/kg/injection, schedule: Q01DX009 (ip), vehicle: saline with Tween-80
[4] = dose: 100.0 mg/kg/injection, schedule: Q01DX005 (ip), vehicle: Klucel (hydroxypropylcellulose) (HPC)
[5] = dose: 200.0 mg/kg/injection, schedule: Q01DX005 (ip), vehicle: Klucel (hydroxypropylcellulose) (HPC)
[6] = dose: 60.0 mg/kg/injection, schedule: Q01DX005 (ip), vehicle: saline with Tween-80
[7] = dose: 50.0 mg/kg/injection, schedule: Q01DX009 (ip), vehicle: Klucel (hydroxypropylcellulose) (HPC)
[8] = dose: 100.0 mg/kg/injection, schedule: Q01DX009 (ip), vehicle: Klucel (hydroxypropylcellulose) (HPC)
[9] = dose: 200.0 mg/kg/injection, schedule: Q01DX009 (ip), vehicle: Klucel (hydroxypropylcellulose) (HPC)
[10] = dose: 120.0 mg/kg/injection, schedule: Q01DX005 (ip), vehicle: saline with Tween-80
[11] = dose: 240.0 mg/kg/injection, schedule: Q01DX005 (ip), vehicle: saline with Tween-80

`CCSC(=Nc1nc2ccc(NC(C)=O)cc2s1)SCC` was tested, and the T/C (dose: 6.25 mg/kg/injection, schedule: Q01DX009 (ip), vehicle: Klucel (hydroxypropylcellulose) (HPC)) was 97 % of control, the T/C (dose: 12.5 mg/kg/injection, schedule: Q01DX009 (ip), vehicle: Klucel (hydroxypropylcellulose) (HPC)) was 101 % of control and the T/C (dose: 25.0 mg/kg/injection, schedule: Q01DX009 (ip), vehicle: Klucel (hydroxypropylcellulose) (HPC)) was 98 % of control.
With `COc1ccc2c3c1O[C@H](c1ccc(O)cc1)[C@H]3[N+](C)(C)CC2` the T/C (dose: 6.25 mg/kg/injection, schedule: Q01DX005 (ip), vehicle: Klucel (hydroxypropylcellulose) (HPC)) was 107 % of control, the T/C (dose: 12.5 mg/kg/injection, schedule: Q01DX005 (ip), vehicle: Klucel (hydroxypropylcellulose) (HPC)) was 110 % of control and the T/C (dose: 25.0 mg/kg/injection, schedule: Q01DX005 (ip), vehicle: Klucel (hydroxypropylcellulose) (HPC)) was 110 % of control. The T/C [1] was 103 % of control.
`CCOCC1COc2c(cc3[nH]cc(C(=O)OCC)c(=O)c3c2Cl)O1` (centres undefined) was tested, and the T/C [2] was 111 % of control, the T/C [3] was 110 % of control and the T/C (dose: 200.0 mg/kg/injection, schedule: Q01DX009 (ip), vehicle: saline with Tween-80) was 101 % of control.
With `c1cncc(-c2cc(-c3cc(-c4cccnc4)n[nH]3)[nH]n2)c1` the T/C (dose: 60.0 mg/kg/injection, schedule: Q01DX005 (ip), vehicle: Klucel (hydroxypropylcellulose) (HPC)) was 103 % of control, the T/C (dose: 120.0 mg/kg/injection, schedule: Q01DX005 (ip), vehicle: Klucel (hydroxypropylcellulose) (HPC)) was 103 % of control and the T/C (dose: 240.0 mg/kg/injection, schedule: Q01DX005 (ip), vehicle: Klucel (hydroxypropylcellulose) (HPC)) was 91 % of control.
In the case of `O=C1c2ccccc2C(=O)c2c(NCC3CCCN4CCCCC34)cccc21` (centres undefined), the T/C [1] is reported as 100 % of control, the T/C [4] is reported as 98 % of control and the T/C [5] is reported as 100 % of control.
In the case of `Cc1cc(Cl)cc2c1NC(=O)C2(O)C/C(=N/NC(=O)CC#N)c1cccc([N+](=O)[O-])c1` (centres undefined), the T/C [6] is reported as 93 % of control, the T/C (dose: 100.0 mg/kg/injection, schedule: Q01DX005 (ip), vehicle: saline with Tween-80) is reported as 103 % of control and the T/C (dose: 200.0 mg/kg/injection, schedule: Q01DX005 (ip), vehicle: saline with Tween-80) is reported as 101 % of control.
`CC(C(=O)O)c1ccc2oc(-c3ccc(Cl)cc3)nc2c1` (centres undefined) was tested, and the T/C (dose: 50.0 mg/kg/injection, schedule: Q01DX009 (ip), vehicle: suspension in saline) was 104 % of control, the T/C (dose: 100.0 mg/kg/injection, schedule: Q01DX009 (ip), vehicle: suspension in saline) was 100 % of control and the T/C (dose: 200.0 mg/kg/injection, schedule: Q01DX009 (ip), vehicle: suspension in saline) was 100 % of control.
With `O=C1C(=Cc2ccccc2)C(=O)c2ccccc21` the T/C (dose: 25.0 mg/kg/injection, schedule: Q04DX002 (ip), vehicle: saline with Tween-80) was 108 % of control, the T/C (dose: 50.0 mg/kg/injection, schedule: Q04DX002 (ip), vehicle: saline with Tween-80) was 109 % of control and the T/C (dose: 100.0 mg/kg/injection, schedule: Q04DX002 (ip), vehicle: saline with Tween-80) was 109 % of control. For the same compound, the T/C (dose: 200.0 mg/kg/injection, schedule: Q04DX002 (ip), vehicle: saline with Tween-80) was 107 % of control and the T/C (dose: 400.0 mg/kg/injection, schedule: Q04DX002 (ip), vehicle: saline with Tween-80) was 112 % of control.
For `CC(=NCCN=C(C)c1ccccc1O)c1ccccc1O`, the T/C [7] was 105 % of control, the T/C [8] was 114 % of control and the T/C [9] was 115 % of control.
With `O=c1c2cc(Cl)ccc2nc2n1OCC2` the T/C [7] was 94 % of control, the T/C [8] was 112 % of control and the T/C [9] was 104 % of control.
With `COC(=O)c1[nH]c(=O)[nH]c(=O)c1F` the T/C (dose: 8.0 mg/kg/injection, schedule: Q01DX009 (ip), vehicle: saline with Tween-80) was 118 % of control, the T/C (dose: 16.0 mg/kg/injection, schedule: Q01DX009 (ip), vehicle: saline with Tween-80) was 104 % of control and the T/C (dose: 22.0 mg/kg/injection, schedule: Q04DX003 (ip), vehicle: saline with Tween-80) was 110 % of control. The T/C (dose: 25.0 mg/kg/injection, schedule: Q01DX009 (ip), vehicle: saline with Tween-80) was 100 % of control, the T/C [2] was 100 % of control and the T/C (dose: 50.0 mg/kg/injection, schedule: Q04DX003 (ip), vehicle: saline with Tween-80) was 155 % of control. The T/C [3] was 90 % of control.
For `CN1C2=NCCN2C(=O)c2cc(Cl)ccc21`, the T/C [7] was 105 % of control and the T/C [8] was 98 % of control.
For `C1CNC(SCC2CC3CC2C2OC32)=N1` (centres undefined), the T/C [1] was 98 % of control and the T/C [4] was 101 % of control.
With `CCOC(=O)c1cnc2c(C)ccc(C)c2c1Nc1ccc2c(c1)OCO2` the T/C (dose: 60.0 mg/kg/injection, schedule: Q01DX005 (ip), vehicle: Klucel + Tween-80) was 92 % of control, the T/C (dose: 120.0 mg/kg/injection, schedule: Q01DX005 (ip), vehicle: Klucel + Tween-80) was 90 % of control and the T/C (dose: 240.0 mg/kg/injection, schedule: Q01DX005 (ip), vehicle: Klucel + Tween-80) was 91 % of control.
With `O=C(NC(Cc1ccc(Cl)cc1)C(=O)O)c1ccc(Br)cc1` (centres undefined) the T/C [1] was 100 % of control, the T/C [4] was 96 % of control and the T/C [5] was 99 % of control.
For `[Cu+2].[O-]/N=C/c1cccc(O)c1[O-].[O-]/N=C/c1cccc(O)c1[O-]`, the T/C (dose: 3.75 mg/kg/injection, schedule: Q01DX005 (ip), vehicle: saline with Tween-80) was 98 % of control, the T/C (dose: 7.5 mg/kg/injection, schedule: Q01DX005 (ip), vehicle: saline with Tween-80) was 100 % of control and the T/C (dose: 15.0 mg/kg/injection, schedule: Q01DX005 (ip), vehicle: saline with Tween-80) was 99 % of control and 104 % of control. For the same compound, the T/C (dose: 30.0 mg/kg/injection, schedule: Q01DX005 (ip), vehicle: saline with Tween-80) was 102 % of control, the T/C [6] was 99 % of control and the T/C [10] was 92 % of control.
In the case of `COc1cc2c(cc1OC)C1CCN3C(=O)CCC3[N+]1(C)CC2` (centres undefined), the T/C (dose: 25.0 mg/kg/injection, schedule: Q01DX009 (ip), vehicle: saline sonified) is reported as 90 % of control, the T/C (dose: 50.0 mg/kg/injection, schedule: Q01DX009 (ip), vehicle: saline sonified) is reported as 90 % of control and the T/C (dose: 100.0 mg/kg/injection, schedule: Q01DX009 (ip), vehicle: saline sonified) is reported as 90 % of control.
In the case of `Cc1ccc(S(=O)(=O)ONNc2nccc3ccccc23)cc1`, the T/C (dose: 100.0 mg/kg/injection, schedule: Q04DX002 (ip), vehicle: saline) is reported as 103 % of control, the T/C (dose: 200.0 mg/kg/injection, schedule: Q04DX002 (ip), vehicle: saline) is reported as 96 % of control and the T/C (dose: 400.0 mg/kg/injection, schedule: Q04DX002 (ip), vehicle: saline) is reported as 97 % of control.
`CC(C)(C)OP(=O)(O)OC(C)(C)C` was tested, and the T/C (dose: 25.0 mg/kg/injection, schedule: Q01DX009 (ip), vehicle: water) was 103 % of control, the T/C (dose: 50.0 mg/kg/injection, schedule: Q01DX009 (ip), vehicle: water) was 100 % of control and the T/C (dose: 100.0 mg/kg/injection, schedule: Q01DX009 (ip), vehicle: water) was 107 % of control. For the same compound, the T/C (dose: 200.0 mg/kg/injection, schedule: Q01DX009 (ip), vehicle: water) was 107 % of control and the T/C (dose: 400.0 mg/kg/injection, schedule: Q01DX009 (ip), vehicle: water) was 112 % of control.
In the case of `Cc1c(O)cnc2nn(-c3ccccc3)c(=N)n12`, the T/C [6] is reported as 91 % of control, the T/C [10] is reported as 92 % of control and the T/C [11] is reported as 90 % of control.
With `CC(C)C(NC(=O)C(Cl)Cl)C(=O)O` (centres undefined) the T/C [1] was 96 % of control, the T/C [4] was 94 % of control and the T/C [5] was 96 % of control.
`CCc1cc2nc3c(=O)[nH]c(=O)nc-3n(CCN(CCO)CCO)c2cc1CC` was tested, and the T/C [6] was 99 % of control, the T/C [10] was 116 % of control and the T/C [11] was 108 % of control.
In the case of `CC1(C)CC(OP(=[Se])(OC2CC(C)(C)N(O)C(C)(C)C2)c2ccccc2)CC(C)(C)N1O`, the T/C (dose: 12.5 mg/kg/injection, schedule: Q01DX001 (ip), vehicle: Klucel (hydroxypropylcellulose) (HPC)) is reported as 102 % of control, the T/C (dose: 25.0 mg/kg/injection, schedule: Q01DX001 (ip), vehicle: Klucel (hydroxypropylcellulose) (HPC)) is reported as 102 % of control and the T/C (dose: 50.0 mg/kg/injection, schedule: Q01DX001 (ip), vehicle: Klucel (hydroxypropylcellulose) (HPC)) is reported as 105 % of control.
